Like-named read-outs stand apart in the source and are kept apart here.
What was measured:
Human Ganglion = Human Ganglion (Homo sapiens, UniProt P30926+P32297); assay: Function at human ganglion subtype, single point 100 μM; type: cell-based
Method: (§1) Binding and function of the compounds to relevant receptor sites was determined in accordance with the techniques described in PCT WO 2008/057938. Inhibition constants (Ki values), reported in nM, were calculated from the IC50 values using the method of Cheng et al., Biochem. Pharmacol. 22: 3099 (1973). […] Thus, the compounds of the present invention are selective modulators of the α4β2 NNR subtype.

human α4β2 NNRs = molecular target: T1, human α4β2 NNRs (Homo sapiens, UniProt P17787+P43681); assay: Function at human α4β2 NNRs, SH-EP1/human a4b2 cells, FLIPR calcium; type: cell-based; details: SH-EP1/human a4b2 cells, FLIPR calcium
T1 construct: expressed in transfected cells; host or cells: SH-EP1
Method: as §1
After the loading period, plates were equilibrated to room temperature and the cells exposed to the test article ([…]) or nicotine or buffer alone on a FLIPR (Molecular Devices). Fluorescence (at 485 nm) was monitored throughout the experiment. The test article change in fluorescence was compared to both a positive control (10 μM nicotine) and a negative control (buffer alone) to determine the percent response relative to that of nicotine.

rats = assay: Seizure/convulsion induction after acute dose, rats; type: in vivo
Method: For example, preclinically, Compound C induced seizures following acute doses:
Likewise, Compound B induced convulsion in 1/6 male rats following an acute oral dose of 300 mg/kg.
In fact, the effect of Compound A was not statistically different from the vehicle control.

Rat α4β2 = Rat α4β2 (Rattus norvegicus, UniProt P09483+P12390); assay: Binding to rat α4β2 NNR (Ki)
Method: as §1

Rat α7 = Rat α7 (Rattus norvegicus, UniProt Q05941); assay: Binding to rat α7 NNR (Ki)
Method: as §1

Human Muscle = Human Muscle (Homo sapiens, UniProt P02708+P07510+Q07001); assay: Function at human muscle subtype, single point 100 μM; type: cell-based
Method: as §1

mice = assay: Seizure induction after acute dose, mice; type: in vivo; details: female mice; acute oral dose of 400 mg/kg
Source text: For example, preclinically, Compound C induced seizures following acute doses: […]

[1] = Single rising dose (SRD) study of Compound C, plasma pharmacokinetics of racemate and enantiomers; type: in vivo; details: plasma; for t1/2 (mean): Table 3; for Cmax / Tmax / AUC(0-inf) / half-life: human, po; for AUC(0-inf): read-out: AUCinf (mean); for half-life: read-out: Mean (SD) Terminal Elimination Half-life (converted)
Method: A single, rising dose (SRD) study was performed with Compound C (the racemate). Plasma samples were analyzed for the content of the two enantiomers, Compound A (substantially pure R), Compound B (substantially pure S). Three dose groups (Compound C) were analyzed, 50, 100, and 400 mg, and four subjects were randomly selected from the 6 subjects tested to receive active treatment in each cohort examined in the SRD study.

Human α4β2 = Human α4β2 (Homo sapiens, UniProt P17787+P43681); assay: Binding to human α4β2 NNR (Ki)
Method: as §1

T1 sequence (P43681 29-627 limits assumed): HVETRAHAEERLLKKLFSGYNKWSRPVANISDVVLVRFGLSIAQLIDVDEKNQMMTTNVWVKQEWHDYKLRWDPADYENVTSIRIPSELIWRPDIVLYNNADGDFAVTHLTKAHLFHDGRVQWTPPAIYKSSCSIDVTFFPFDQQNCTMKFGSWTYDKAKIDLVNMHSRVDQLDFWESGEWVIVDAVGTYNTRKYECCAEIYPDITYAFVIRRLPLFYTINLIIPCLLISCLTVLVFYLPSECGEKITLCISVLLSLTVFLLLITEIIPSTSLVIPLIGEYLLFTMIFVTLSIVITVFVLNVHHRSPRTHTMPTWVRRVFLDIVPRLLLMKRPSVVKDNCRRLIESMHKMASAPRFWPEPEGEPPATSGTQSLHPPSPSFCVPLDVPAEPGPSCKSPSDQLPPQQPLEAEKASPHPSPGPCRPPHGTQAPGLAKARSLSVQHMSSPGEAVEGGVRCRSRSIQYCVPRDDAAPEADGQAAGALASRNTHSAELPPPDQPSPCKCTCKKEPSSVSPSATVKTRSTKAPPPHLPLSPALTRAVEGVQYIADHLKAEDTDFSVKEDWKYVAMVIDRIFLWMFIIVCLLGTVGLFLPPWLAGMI
T1 sequence (P17787 26-502): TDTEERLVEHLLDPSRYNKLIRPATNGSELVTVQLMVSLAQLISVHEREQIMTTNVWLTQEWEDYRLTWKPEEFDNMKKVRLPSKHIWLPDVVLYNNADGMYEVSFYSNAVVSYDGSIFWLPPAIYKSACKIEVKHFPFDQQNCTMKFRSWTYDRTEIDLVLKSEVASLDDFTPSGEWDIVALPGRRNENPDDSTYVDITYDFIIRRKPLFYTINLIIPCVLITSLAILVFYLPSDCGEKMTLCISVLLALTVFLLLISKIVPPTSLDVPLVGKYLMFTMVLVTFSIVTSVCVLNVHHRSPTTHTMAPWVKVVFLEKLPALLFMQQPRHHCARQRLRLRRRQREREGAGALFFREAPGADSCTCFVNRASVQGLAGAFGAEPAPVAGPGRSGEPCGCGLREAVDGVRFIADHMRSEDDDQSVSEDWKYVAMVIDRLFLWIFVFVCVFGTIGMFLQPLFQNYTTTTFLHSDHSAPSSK
Rat α4β2, sequence (P09483 31-630): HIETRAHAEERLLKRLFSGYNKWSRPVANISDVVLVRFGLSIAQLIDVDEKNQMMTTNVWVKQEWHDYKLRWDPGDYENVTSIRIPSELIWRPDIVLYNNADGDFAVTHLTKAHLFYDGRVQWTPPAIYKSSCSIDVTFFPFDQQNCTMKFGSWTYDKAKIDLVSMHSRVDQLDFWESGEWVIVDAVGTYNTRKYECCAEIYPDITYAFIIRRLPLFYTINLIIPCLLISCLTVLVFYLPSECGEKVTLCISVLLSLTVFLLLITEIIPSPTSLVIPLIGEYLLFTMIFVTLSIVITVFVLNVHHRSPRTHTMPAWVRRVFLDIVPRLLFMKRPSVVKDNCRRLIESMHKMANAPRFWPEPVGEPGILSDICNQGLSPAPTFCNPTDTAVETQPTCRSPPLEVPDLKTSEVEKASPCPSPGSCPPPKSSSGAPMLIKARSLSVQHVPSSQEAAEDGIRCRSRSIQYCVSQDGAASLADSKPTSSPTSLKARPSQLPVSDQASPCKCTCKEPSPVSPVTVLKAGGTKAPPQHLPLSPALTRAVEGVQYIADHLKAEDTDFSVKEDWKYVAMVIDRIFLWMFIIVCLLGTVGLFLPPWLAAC
Rat α4β2, sequence (P12390 25-500): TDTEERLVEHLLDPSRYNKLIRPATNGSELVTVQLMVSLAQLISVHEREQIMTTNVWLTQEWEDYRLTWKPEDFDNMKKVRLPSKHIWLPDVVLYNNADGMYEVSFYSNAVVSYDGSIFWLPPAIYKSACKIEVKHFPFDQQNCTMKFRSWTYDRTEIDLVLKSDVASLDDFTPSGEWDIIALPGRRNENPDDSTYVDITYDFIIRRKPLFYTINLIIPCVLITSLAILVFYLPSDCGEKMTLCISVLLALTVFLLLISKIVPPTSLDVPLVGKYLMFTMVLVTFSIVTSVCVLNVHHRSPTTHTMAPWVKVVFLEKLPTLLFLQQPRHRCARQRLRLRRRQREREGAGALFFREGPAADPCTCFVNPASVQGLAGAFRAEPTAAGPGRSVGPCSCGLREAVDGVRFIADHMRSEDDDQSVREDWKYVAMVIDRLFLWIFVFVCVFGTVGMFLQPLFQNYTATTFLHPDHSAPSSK
Rat α7, sequence (Q05941 23-502): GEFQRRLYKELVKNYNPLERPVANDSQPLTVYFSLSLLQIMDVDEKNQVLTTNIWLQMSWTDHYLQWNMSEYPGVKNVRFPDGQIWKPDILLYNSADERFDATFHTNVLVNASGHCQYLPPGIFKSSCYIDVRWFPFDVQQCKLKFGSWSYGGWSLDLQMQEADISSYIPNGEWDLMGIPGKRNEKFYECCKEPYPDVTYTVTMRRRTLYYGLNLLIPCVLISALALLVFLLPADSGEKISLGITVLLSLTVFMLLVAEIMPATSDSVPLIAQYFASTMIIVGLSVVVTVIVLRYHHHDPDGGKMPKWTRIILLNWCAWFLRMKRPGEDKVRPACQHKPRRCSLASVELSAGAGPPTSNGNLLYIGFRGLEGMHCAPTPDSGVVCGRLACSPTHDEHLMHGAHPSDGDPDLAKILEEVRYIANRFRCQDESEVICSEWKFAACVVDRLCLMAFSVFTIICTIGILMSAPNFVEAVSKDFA
Human Muscle, sequence (P02708 21-457): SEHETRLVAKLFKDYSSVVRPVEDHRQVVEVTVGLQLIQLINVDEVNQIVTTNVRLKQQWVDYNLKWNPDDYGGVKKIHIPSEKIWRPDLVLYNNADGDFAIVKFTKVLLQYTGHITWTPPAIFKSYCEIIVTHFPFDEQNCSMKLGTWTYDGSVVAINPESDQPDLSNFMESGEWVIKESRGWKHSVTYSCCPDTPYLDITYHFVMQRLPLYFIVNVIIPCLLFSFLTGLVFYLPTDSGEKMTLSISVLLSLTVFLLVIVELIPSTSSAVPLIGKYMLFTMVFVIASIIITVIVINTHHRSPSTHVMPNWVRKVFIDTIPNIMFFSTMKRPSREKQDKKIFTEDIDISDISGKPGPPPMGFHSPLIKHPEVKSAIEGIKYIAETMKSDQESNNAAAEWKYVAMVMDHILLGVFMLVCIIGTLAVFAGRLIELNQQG
Human Muscle, sequence (P11230 24-501 partner): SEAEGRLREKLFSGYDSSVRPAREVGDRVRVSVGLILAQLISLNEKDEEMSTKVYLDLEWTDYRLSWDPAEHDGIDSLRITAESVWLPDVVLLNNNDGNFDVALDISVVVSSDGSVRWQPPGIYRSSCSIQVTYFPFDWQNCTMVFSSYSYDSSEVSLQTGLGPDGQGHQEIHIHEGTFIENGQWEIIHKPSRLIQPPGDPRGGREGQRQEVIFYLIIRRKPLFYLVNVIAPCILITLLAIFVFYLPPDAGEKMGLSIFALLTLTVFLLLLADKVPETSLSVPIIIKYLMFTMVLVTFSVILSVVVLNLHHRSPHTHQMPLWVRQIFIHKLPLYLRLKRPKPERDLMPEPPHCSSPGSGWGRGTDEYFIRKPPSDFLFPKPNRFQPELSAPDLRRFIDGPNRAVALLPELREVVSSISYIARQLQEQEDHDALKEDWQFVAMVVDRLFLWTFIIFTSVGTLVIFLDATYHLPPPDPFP
Human Muscle, sequence (P07510 23-517): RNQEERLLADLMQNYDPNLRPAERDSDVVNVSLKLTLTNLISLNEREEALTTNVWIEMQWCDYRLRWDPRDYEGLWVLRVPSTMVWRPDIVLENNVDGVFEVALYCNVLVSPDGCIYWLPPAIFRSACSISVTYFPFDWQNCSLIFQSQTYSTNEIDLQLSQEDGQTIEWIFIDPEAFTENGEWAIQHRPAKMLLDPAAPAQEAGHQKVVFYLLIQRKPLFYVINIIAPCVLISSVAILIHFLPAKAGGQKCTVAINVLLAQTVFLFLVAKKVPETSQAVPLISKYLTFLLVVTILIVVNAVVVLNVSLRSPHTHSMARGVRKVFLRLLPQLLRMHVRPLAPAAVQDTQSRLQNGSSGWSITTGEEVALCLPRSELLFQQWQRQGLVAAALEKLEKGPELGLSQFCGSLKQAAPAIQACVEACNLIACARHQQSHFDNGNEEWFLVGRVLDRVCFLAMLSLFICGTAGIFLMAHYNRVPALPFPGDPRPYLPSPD
Human Muscle, sequence (Q07001 22-517): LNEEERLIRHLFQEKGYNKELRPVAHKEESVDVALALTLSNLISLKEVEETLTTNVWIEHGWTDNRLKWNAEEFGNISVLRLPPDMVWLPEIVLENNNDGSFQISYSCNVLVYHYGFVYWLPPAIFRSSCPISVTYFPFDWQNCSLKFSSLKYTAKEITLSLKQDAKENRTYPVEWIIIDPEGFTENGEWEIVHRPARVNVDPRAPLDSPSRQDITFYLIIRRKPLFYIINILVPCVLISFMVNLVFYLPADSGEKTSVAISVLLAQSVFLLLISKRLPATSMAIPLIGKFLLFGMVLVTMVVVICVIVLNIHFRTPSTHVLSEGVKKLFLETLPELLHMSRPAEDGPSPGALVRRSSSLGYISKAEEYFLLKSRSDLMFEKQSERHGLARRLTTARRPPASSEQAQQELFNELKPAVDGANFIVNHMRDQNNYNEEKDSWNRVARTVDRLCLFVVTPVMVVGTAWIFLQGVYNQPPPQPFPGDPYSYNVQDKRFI
Human α4β2, sequence (P43681 29-627 limits assumed): as the sequence (P43681 29-627 limits assumed) above
Human α4β2, sequence (P17787 26-502): as the sequence (P17787 26-502) above

SMILES: c1cncc(N2CCC3(CCCN3)C2)c1 (racemic) [Compound C, 7-(3-pyridinyl)-1,7-diazaspiro[4.4]nonane]
- Human Ganglion SP (100 μM) (Human Ganglion): 15
- EC50 (human α4β2 NNRs; read-out: Human α4β2 EC50): 9100 nM
- Emax (human α4β2 NNRs; relative to 10 μM nicotine, read-out: Human α4β2 Emax (% of nic resp)): 43%
- induced seizures (animals affected) (rats; female rats, acute IV dose of 100 mg/kg): 4/5 female rats
- induced seizures (animals affected) (rats; female rats, acute oral dose of 200 mg/kg): 1/5 female rats
- induced seizures (animals affected) (rats; female rats, acute oral dose of 800 mg/kg): 1/5 female rats
- induced seizures (animals affected) (rats; male rats, acute IV dose of 100 mg/kg): 1/5 male rats
- induced seizures (animals affected) (rats; male rats, acute oral dose of 800 mg/kg): 1/5 male rats
- Ki (Rat α4β2): 68 nM
- Ki (Rat α7): > 10000 nM
- Human Muscle SP (100 μM) (Human Muscle): 22
- induced seizures (animals affected) (mice): 1/5 female mice
- t1/2 (mean) ([1]; 50 mg Compound C (n = 4)): 24.8 h
- t1/2 (mean) ([1]; 100 mg Compound C (n = 4)): 21.1 h
- t1/2 (mean) ([1]; 400 mg Compound C (n = 4)): 18.5 h
- Cmax ([1]; 50 mg Compound C (n = 4)): 21.8 ng/mL
- Tmax ([1]; 50 mg Compound C (n = 4)): 4.38 h
- AUC(0-inf) ([1]; 50 mg Compound C (n = 4)): 473 ng·h/mL
- half-life ([1]; 50 mg Compound C (n = 4)): 24.8 h
- Cmax ([1]; 100 mg Compound C (n = 4)): 44.7 ng/mL
- Tmax ([1]; 100 mg Compound C (n = 4)): 31.1 h
- AUC(0-inf) ([1]; 100 mg Compound C (n = 4)): 741 ng·h/mL
- half-life ([1]; 100 mg Compound C (n = 4)): 21.1 h
- Cmax ([1]; 400 mg Compound C (n = 4)): 295 ng/mL
- Tmax ([1]; 400 mg Compound C (n = 4)): 2 h
- AUC(0-inf) ([1]; 400 mg Compound C (n = 4)): 3680 ng·h/mL
- half-life ([1]; 400 mg Compound C (n = 4)): 18.5 h
- Ki (Human α4β2): 34 nM
